Data taken from ChEMBL document CHEMBL4725362, “Discovery of Novel Inhibitors of a Critical Brain Enzyme Using a Homology Model and a Deep Convolutional Neural Network” (J Med Chem, 2020).

Test: Inhibition of N-terminal MBP tagged and C-terminal 6x-His-tagged ANAT (unknown origin) expressed in Escherichia coli BL21(DE3) assessed as reduction in coenzyme A production using DTNB incubated up to 30 mins in presence of 0.1%Triton X-100
Design: species or system Homo sapiens

Question: With `CCOC(=O)c1sc(NC(=O)COC(=O)Cn2c(=O)cnc3ccccc32)cc1C` as the molecule, how does the IC50 read?
Answer: 6.1 µM

Question: Which IC50 does the source give for `Cc1c(C(=O)O)sc2[nH]c(=O)cc(CSc3nnc(C4CC4)[nH]3)c12` here?
Answer: 1.25 µM

Question: For `Cc1nnc(SCc2nnc(-c3c(-c4ccccc4)noc3C)o2)s1`, which IC50 is on record?
Answer: 2.71 µM

Question: For `Nc1cc(N)nc(SCc2ncc(-c3ccc(F)cc3)o2)n1`, which IC50 is on record?
Answer: 4.82 µM
